# Patent publication US20040192697A1, “Pyrrolopyridine potassium channel openers” (priority 2002, published 2004)
# How the values were obtained:
# [1] = test system: Landrace pig bladder strips; test: In vitro functional model: field-stimulated bladder tissue strips; settings: dose dependent over concentration range of 10^−9 to 10^−5 M; control agonist
# Description: In vitro Functional Model
# Compounds were evaluated for functional BK channel opening activity using tissue strips obtained from Landrace pig bladders. Landrace pig bladders were obtained from female Landrace pigs of 9-30 kg. Landrace pigs were euthanized with an intraperitoneal injection of pentobarbital solution, Somlethal®, J. A. Webster Inc., Sterling Mass. The entire bladder was removed and immediately placed into Krebs Ringer bicarbonate solution (composition, mM: NaCl, 120; NaHCO3, 20; dextrose, 11; KCl, 4.7; CaCl2, 2.5; MgSO4, 1.5; KH2PO4, 1.2; K2EDTA, 0.01, equilibrated with 5% CO2/95% O2 pH 7.4 at 37° C.). Propranolol (0.004 mM) was included in all of the assays to block β-adrenoceptors. The trigonal and dome portions were discarded. Strips 3-5 mm wide and 20 mm long were prepared from the remaining tissue cut in a circular fashion. The mucosal layer was removed. One end was fixed to a stationary glass rod and the other to a Grass FT03 transducer at a basal preload of 1.0 gram. Two parallel platinum electrodes were included in the stationary glass rod to provide field stimulation of 0.05 Hz, 0.5 milli-seconds at 20 volts. […] The maximal efficacy of each compound (expressed as % relative to P1075) is reported. […] Agonist potencies were also expressed as an index relative to P1075. The index was calculated by dividing the ED50 for P1075 by the ED50 for the test agonist in a given tissue. […]
Compound,melting point [°C],effect on stimulated twitch of bladder strips [1]
"N#Cc1c(N2CCC[C@H]2CO)[nH]c2cccnc12 [Example 10, (S)-2-(2-Hydroxymethyl-pyrrolidin-1-yl)-1H-pyrrolo[3,2-b]pyridine-3-carbonitrile]",207 to 209,
"N#Cc1c(N2CCCCC2)[nH]c2cccnc12 [Example 18, 2-Piperidin-1-yl-1H-pyrrolo[3,2-b]pyridine-3-carbonitrile]",241 to 242,
CCC(C)(C)N=C(NC#N)Nc1cccnc1 [Example P1075],,completely eliminated the stimulated twitch
